*1 amine or outer side, *2 acyl side, *3 side chain or, on linkers, in order; H or OH if unused. Where a SMILES comes first, the peptide text is derived from it. Bridges are numbered along the chain shown (N, C = ends). Roman numbers before positions name the chains, in order. [ ]: non-standard residue; d: D form. CO(CH2CH2O)13CH2CH2CO = O=C(CCOCCOCCOCCOCCOCCOCCOCCOCCOCCOCCOCCOCCOCCC(=O)[*:2])[*:1]; 3Pal = N[C@@H](Cc1cccnc1)C(=O)O
Experiments:
[1] = target: T1, Recombinant Human TrkB Fc Chimera Protein (Homo sapiens, UniProt Q16620); assay: Surface plasmon resonance (SPR), Biacore T200, single cycle kinetics; format: binding; conditions: for Kd: calculated by employing the lower theoretical limit of 0.00001 (1/s) for koff, read-out: Kd (dissociation constant) of binding to TrkB
T1 construct: purchased R&D Systems
Method: A CM3 sensor chip (Cytiva) was inserted into a Biacore T200 (Cytiva). Three priming runs were performed using running buffer: HBS-EP+ (Cytiva). The system was then equilibrated at a flow rate of 30 μL/min. After mixing in 50 μL each of a 60 mM EDC solution (Cytiva) and 650 mM NHS solution (Cytiva), the reaction was performed at a flow rate of 10 μL/min for 420 seconds. Then, 135 μL of a 30 ng/μL anti-human IgG (Fc) antibody (Cytiva) solution was prepared by dilution with a 10 mM acetic acid solution (pH 5.0), and the anti-human IgG (Fc) antibody was immobilized on the CM3 sensor chip by reacting it at a flow rate of 10 μL/min for 360 seconds. After immobilization, capping was performed by reacting it with a 1.0M ethanolamine solution (Cytiva) at a flow rate of 10 μL/min for 420 seconds. Each 200 nM Recombinant Human TrkA Fc Chimera Protein, Recombinant Human TrkB Fc Chimera Protein, Recombinant Human TrkC Fc Chimera Protein (R&D Systems) solution was reacted with the immobilized antibody at a flow rate of 10 μL/min for 60 seconds. A liquid prepared by dissolving each peptide at 10 mM in DMSO solution was diluted with running buffer to prepare a peptide-dissolved solution at a final concentration of 10 μM. Subsequently, 50 nM, 25 nM, 12.5 nM, 5 nM, and 2.5 nM peptide solutions were prepared. Using the samples described above, the kinetics of peptide against TrkA, TrkB, and TrkC were obtained by SPR measurements. After reacting a peptide with TrkA, TrkB, and TrkC, regeneration was performed using a reaction with a 3M MgCl solution at 10 μL/min for 180 seconds.
The kinetic evaluation model was Single Cycle Kinetics, and curve fitting was performed using Biacore T200 Evaluation Software Version 3.0 (Cytiva). The binding of peptides to TrkA, TrkB, and TrkC was evaluated by performing least-squares curve fitting on the obtained sensorgrams and calculating their Kd values (dissociation constants).

TrkB = TrkB (Homo sapiens, UniProt Q16620); assay: PathHunter eXpress TrkB Functional Assay (phosphorylation of TrkB); format: cell-based; conditions: maximum signal induced by BDNF = 100%; stimulation for 3 hours
Sequence of TrkB (Q16620 32-822): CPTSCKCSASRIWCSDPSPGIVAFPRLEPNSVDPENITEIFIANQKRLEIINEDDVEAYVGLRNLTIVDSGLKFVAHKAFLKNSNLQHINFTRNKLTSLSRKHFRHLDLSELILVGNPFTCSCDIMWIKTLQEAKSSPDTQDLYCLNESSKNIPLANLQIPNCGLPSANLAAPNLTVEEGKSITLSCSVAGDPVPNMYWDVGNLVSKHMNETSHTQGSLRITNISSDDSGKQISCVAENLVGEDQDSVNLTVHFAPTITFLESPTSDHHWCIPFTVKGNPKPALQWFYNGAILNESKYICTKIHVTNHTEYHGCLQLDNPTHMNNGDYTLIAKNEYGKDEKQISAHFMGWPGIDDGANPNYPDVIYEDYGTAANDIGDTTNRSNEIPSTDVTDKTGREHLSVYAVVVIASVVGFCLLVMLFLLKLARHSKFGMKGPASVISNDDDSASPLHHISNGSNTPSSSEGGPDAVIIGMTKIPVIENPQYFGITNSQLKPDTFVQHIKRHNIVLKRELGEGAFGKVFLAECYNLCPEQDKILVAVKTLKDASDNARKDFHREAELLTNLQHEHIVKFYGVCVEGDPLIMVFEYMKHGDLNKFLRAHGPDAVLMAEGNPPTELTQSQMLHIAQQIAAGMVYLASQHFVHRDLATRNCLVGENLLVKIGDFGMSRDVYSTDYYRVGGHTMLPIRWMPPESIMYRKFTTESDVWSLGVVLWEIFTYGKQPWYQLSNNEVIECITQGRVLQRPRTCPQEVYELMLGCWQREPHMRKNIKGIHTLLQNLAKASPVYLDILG
Method in brief: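 PathHunter TrkB cells, cultured 48 h, were stimulated 3 h with peptide or BDNF, then detection reagent added for 60 min at room temperature; luminescence read. Activity (%) scaled from unstimulated (0%) to maximal BDNF signal (100%); peptides tested over 0.006104-100 nM, 0.032-100 nM or 0.01-10 nM ranges.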

Structure (SMILES): CC(C)[C@@H]1NC(=O)[C@H](Cc2cccnc2)NC(=O)[C@H](CCC(=O)O)NC(=O)[C@H](CO)NC(=O)[C@H](Cc2ccc(O)cc2)NC(=O)[C@H]([C@@H](C)O)NC(=O)[C@@H]2CCCN2C(=O)[C@H](Cc2c[nH]c3ccccc23)NC(=O)[C@H](Cc2cccnc2)NC(=O)[C@H](Cc2ccc(O)cc2)NC(=O)[C@@H]2CCCN2C(=O)[C@H](CO)NC(=O)[C@H](Cc2ccccc2)NC(=O)CSC[C@@H](C(=O)NCC(=O)N[C@@H](CCCCNC(=O)CCOCCOCCOCCOCCOCCOCCOCCOCCOCCOCCOCCOCCOCCC(=O)NCCCC[C@H](NC(=O)CNC(=O)[C@@H]2CSCC(=O)N[C@@H](Cc3ccccc3)C(=O)N[C@@H](CO)C(=O)N3CCC[C@H]3C(=O)N[C@@H](Cc3ccc(O)cc3)C(=O)N[C@@H](Cc3cccnc3)C(=O)N[C@@H](Cc3c[nH]c4ccccc34)C(=O)N3CCC[C@H]3C(=O)N[C@@H]([C@@H](C)O)C(=O)N[C@@H](Cc3ccc(O)cc3)C(=O)N[C@@H](CO)C(=O)N[C@@H](CCC(=O)O)C(=O)N[C@@H](Cc3cccnc3)C(=O)N[C@@H](C(C)C)C(=O)N[C@@H](CCC(=O)O)C(=O)N2)C(N)=O)C(N)=O)NC(=O)[C@H](CCC(=O)O)NC1=O [compound 48] (I: {CH2CO}-FSPY[3Pal]WPTYSE[3Pal]VECGK-NH2 / II: {CH2CO}-FSPY[3Pal]WPTYSE[3Pal]VECGK-NH2; linker I:17-II:17 via CO(CH2CH2O)13CH2CH2CO; thioether I:N-I:15, II:N-II:15)
- koff (dissociation rate constant) of binding to TrkB [1]: exceeded the measurement limit
- Kd [1]: ≤ 0.1 nM
- Emax (TrkB): 102%

Structure (SMILES): CC(C)[C@@H]1NC(=O)[C@H](Cc2cccnc2)NC(=O)[C@H](CCC(=O)O)NC(=O)[C@H](CO)NC(=O)[C@H](Cc2ccc(O)cc2)NC(=O)[C@H]([C@@H](C)O)NC(=O)[C@@H]2CCCN2C(=O)[C@H](Cc2c[nH]c3ccccc23)NC(=O)[C@H](Cc2cccnc2)NC(=O)[C@H](Cc2ccc(O)cc2)NC(=O)[C@@H]2CCCN2C(=O)[C@H](CCC(=O)O)NC(=O)[C@H](Cc2ccccc2)NC(=O)CSC[C@@H](C(=O)NCC(=O)N[C@@H](CCCCNC(=O)CCOCCOCCOCCOCCOCCOCCOCCOCCOCCOCCOCCOCCOCCC(=O)NCCCC[C@H](NC(=O)CNC(=O)[C@@H]2CSCC(=O)N[C@@H](Cc3ccccc3)C(=O)N[C@@H](CCC(=O)O)C(=O)N3CCC[C@H]3C(=O)N[C@@H](Cc3ccc(O)cc3)C(=O)N[C@@H](Cc3cccnc3)C(=O)N[C@@H](Cc3c[nH]c4ccccc34)C(=O)N3CCC[C@H]3C(=O)N[C@@H]([C@@H](C)O)C(=O)N[C@@H](Cc3ccc(O)cc3)C(=O)N[C@@H](CO)C(=O)N[C@@H](CCC(=O)O)C(=O)N[C@@H](Cc3cccnc3)C(=O)N[C@@H](C(C)C)C(=O)N[C@@H](CCC(=O)O)C(=O)N2)C(N)=O)C(N)=O)NC(=O)[C@H](CCC(=O)O)NC1=O [compound 56] (I: {CH2CO}-FEPY[3Pal]WPTYSE[3Pal]VECGK-NH2 / II: {CH2CO}-FEPY[3Pal]WPTYSE[3Pal]VECGK-NH2; linker I:17-II:17 via CO(CH2CH2O)13CH2CH2CO; thioether I:N-I:15, II:N-II:15)
- koff (dissociation rate constant) of binding to TrkB [1]: exceeded the measurement limit
- Kd [1]: ≤ 0.1 nM
- Emax (TrkB): 93%

Reference: patent US20250282820A1, “PEPTIDE COMPLEX HAVING TRKB BINDING ACTIVITY” (PEPTIDREAM INC, priority 2022, published 2025)
